From US8945518B2, “Formulation of dual eicosanoid system and cytokine system inhibitors for use in the prevention and treatment of oral diseases and conditions” (Unigen, Inc., priority 2002, dated 2015)

Columns and labels:
[1] = literature studies of bioavailability; cited from earlier work
[2] = test system: cox-2 gene transcription in human colon cancer DLD-1 cells; settings: Mutoh et al. (2000), read-out: IC50, suppression of cox-2 gene transcription; cited from earlier work
[3] = test system: prostaglandin endoperoxide synthase; settings: Kalkbrenner et al. (1992); cited from earlier work
[4] = Stability of catechin in solution; format: physicochemical
Experimental: A total of 6 different conditions (not including control solution) were chosen for this stability investigation at 45° C. Aqueous K2HPO4 (0.5 M) or KH2PO4 (0.5 M) was utilized to make buffered solutions at pH 5 or 8, respectively. […] All seven solutions were stored in sealed bottles at 45° C.
All eight solutions were stored in sealed bottles at 45° C.

[5] = Oxygen Radical Absorption Capacity (ORAC)
[6] = target: T1, recombinant ovine COX-1 (Ovis aries, UniProt P05979); test: COX-1 peroxidase activity inhibition (TMPD, 96-well); format: biochemical
T1 sequence (P05979 25-600): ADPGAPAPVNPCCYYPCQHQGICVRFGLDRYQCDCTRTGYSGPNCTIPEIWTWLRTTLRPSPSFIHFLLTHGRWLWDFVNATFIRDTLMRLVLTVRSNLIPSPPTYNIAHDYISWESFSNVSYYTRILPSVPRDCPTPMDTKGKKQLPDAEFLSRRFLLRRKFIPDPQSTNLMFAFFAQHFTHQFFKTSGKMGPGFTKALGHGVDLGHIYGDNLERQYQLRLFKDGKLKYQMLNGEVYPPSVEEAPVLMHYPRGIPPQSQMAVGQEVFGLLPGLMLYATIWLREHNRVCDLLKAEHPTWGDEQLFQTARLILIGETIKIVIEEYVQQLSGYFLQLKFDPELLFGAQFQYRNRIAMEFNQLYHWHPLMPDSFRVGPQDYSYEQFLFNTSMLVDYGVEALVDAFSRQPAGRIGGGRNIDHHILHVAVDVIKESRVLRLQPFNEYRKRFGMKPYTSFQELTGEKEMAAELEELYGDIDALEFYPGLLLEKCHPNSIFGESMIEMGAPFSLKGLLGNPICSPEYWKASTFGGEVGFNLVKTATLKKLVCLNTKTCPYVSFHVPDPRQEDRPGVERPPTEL
Excerpt: (§1) In order to screen for compounds that inhibited the COX-1 and COX-2 activities, a high throughput, in vitro assay was developed that utilized the inhibition of the peroxidase activity of both enzymes. […] Briefly, the composition or compound being examined was titrated against a fixed amount of COX-1 and COX-2 enzymes. A cleavable, peroxide chromophore was included in the assay to visualize the peroxidase activity of each enzyme in presence of arachidonic acid as a cofactor. Typically, assays were performed in a 96-well format. Each inhibitor, taken from a 10 mg/mL stock solution in 100% DMSO, was tested in triplicate at room temperature using the following range of concentrations: 0, 0.1, 1, 5, 10, 20, 50, 100, and 500 μg/mL. […] The components were mixed for 10 seconds on a rotating platform, followed by the addition of 20 μL of 2 mM N,N,N′N′-tetramethyl-p-phenylenediamine dihydrochloride (TMPD) and 20 μL of 1.1 mM arachidonic acid to initiate the reaction. The plate was shaken for 10 seconds and then incubated 5 minutes before reading the absorbance at 570 nm. The inhibitor concentration vs. % inhibition was plotted and the IC50 determined by taking the half-maximal point along the isotherm and intersecting the concentration on the X-axis. The IC50 was then normalized to the number of enzyme units in the assay.

[7] = target: T2, recombinant ovine COX-2 (Ovis aries, UniProt P79208); test: COX-2 peroxidase activity inhibition (TMPD, 96-well); format: biochemical; settings: IC50 normalized to enzyme units
T2 sequence (P79208 17-603): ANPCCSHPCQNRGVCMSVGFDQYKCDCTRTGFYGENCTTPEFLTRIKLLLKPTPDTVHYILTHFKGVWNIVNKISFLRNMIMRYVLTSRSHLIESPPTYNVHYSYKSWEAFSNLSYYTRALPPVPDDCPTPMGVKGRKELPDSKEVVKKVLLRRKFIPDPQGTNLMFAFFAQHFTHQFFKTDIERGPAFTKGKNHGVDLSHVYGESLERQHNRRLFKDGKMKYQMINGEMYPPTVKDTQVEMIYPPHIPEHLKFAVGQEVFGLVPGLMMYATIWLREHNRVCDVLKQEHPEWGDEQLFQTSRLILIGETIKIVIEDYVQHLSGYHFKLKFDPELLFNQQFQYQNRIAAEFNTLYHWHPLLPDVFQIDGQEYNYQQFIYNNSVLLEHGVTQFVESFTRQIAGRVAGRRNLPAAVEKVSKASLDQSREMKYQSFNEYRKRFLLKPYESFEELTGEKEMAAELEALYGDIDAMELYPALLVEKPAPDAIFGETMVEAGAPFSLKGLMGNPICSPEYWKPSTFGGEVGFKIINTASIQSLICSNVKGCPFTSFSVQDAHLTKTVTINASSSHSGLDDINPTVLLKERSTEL
Excerpt: as §1

[8] = test system: newly synthesized LTB4 (5-LOX pathway) in HT-29 cells; test: LTB4 competitive ELISA in HT-29 cells; format: cell-based; settings: Homo sapiens, 3 μg/mL, 48 hrs
Experimental: A competitive ELISA for Leukotriene B4 (LTB4; Neogen, Inc., Cat#406110) was used to assess the effect of this UP676 formulation on newly synthesized levels of LTB4 present in each cell line as a measure UP676's inhibitory effect on the 5-LOX pathway. The assay was performed in duplicate by adding 160,000 to 180,000 cells per well in 6-well plates. […] Each treated cell line was then harvested by centrifugation and disrupted by gentle dounce homogenization lysis in physiological buffers.

[9] = test system: COX-1 and COX-2 enzymes; settings: cited from earlier work

Q: For `Oc1cc(O)c2c(c1)OC(c1ccc(O)c(O)c1)C(O)C2` (stereo not drawn) [Catechin], which half life [1] is on record?
A: 2 h

Q: And the IC50 [2]?
A: 415 µM

Q: And the IC50 [3]?
A: 40 µM

Q: And the “stability of catechin in solution, basic conditions or metal ions” value ([4]; basic conditions or metal ions such as Fe3+)?
A: not under basic conditions or when exposed to metal ions

Q: What about the “stability of catechin in solution, neutral conditions” value ([4]; neutral conditions, 4° C. and 40° C.) of the same molecule?
A: stable

Q: And the “stability of catechin in solution, weakly basic” value ([4]; pH=7.5)?
A: decomposes

Q: What about the “Oxygen Radical Absorption Capacity (ORAC)” value [5] of the same molecule?
A: 20,000

Q: And the “selectivity against the COX-1 enzyme” value ([6]; catechin in the UP676 formulation, COX-1 over COX-2)?
A: 2.3 fold

Q: Which “IC50 for COX-2” value [7] does the source give for `O=C(O)[C@H]1O[C@@H](Oc2cc3oc(-c4ccccc4)cc(=O)c3c(O)c2O)[C@H](O)[C@@H](O)[C@@H]1O` [Baicalin] here?
A: 0.28 μg/mL/unit

Q: And the “IC50 for COX-1” value ([6]; peroxidase activity, IC50 normalized to enzyme units)?
A: 0.44 μg/mL/unit of enzyme

Q: Which inhibition at 3 µg/mL [8] does the source give for `CC(C)Cc1ccc(C(C)C(=O)O)cc1` (stereo not drawn) [Ibuprofen, ibuprofen] here?
A: 20%

Q: With `CC(=O)Oc1ccccc1C(=O)O` [aspirin] as the molecule, how does the “times more potent against COX-1 than COX-2” value [9] read?
A: more than 150 times
